Measured values: patent US20130072899A1, “Pharmaceutical Formulations for Iontophoretic Delivery of Gallium” (Nitric BloTherapeutics, Inc., priority 2008, published 2013)

Key:
[1] = 25° C., 0.01M; cited from earlier work
[2] = Effect of pH on skin permeability (tritiated water permeation, Franz cells); assay type: in vitro ADME, human; conditions: 70 h passive permeation

| Structure (SMILES) | Log β (stability constant) [1] | average radioactive count in the receiver compartment ([2]; pH 2) [DPM/mL] | average radioactive count in the receiver compartment ([2]; pH 5) [DPM/mL] |
| --- | --- | --- | --- |
| O=C([O-])CC(O)(CC(=O)[O-])C(=O)[O-].[Ga+3] [Ga citrate] | 10.02 |  |  |
| [OH][Ga+][OH] [Ga(OH)2^+] | −6.6 |  |  |
| [Ga+3].[OH-].[OH-].[OH-] [Ga(OH)3] | −11.0 |  |  |
| [OH][Ga-]([OH])([OH])[OH] [Ga(OH)4^−] | −15.66 |  |  |
| [OH][Ga+2] [GaOH^++] | −2.9 |  |  |
| [3H]O[3H] [tritiated water, Tritiated water] |  | 55860±25106 | 60557±20376 |
